{"source": "patent EP4640206A1", "about": "“NISIN FOR INHIBITING BIOFILMS” (SkyLab AG, priority 2024, dated 2025)", "key": {"[1]": {"test_system": "S.mutans biofilms", "assay": "Follow-up observation of pH of washes of a laboratory model of S. mutans biofilms in 10% sucrose", "format": "cell-based, Streptococcus mutans", "details": "10% sucrose; for Value of pH decrease within 30 min. of measurement (%): compared to the initial value", "description": "Example No. 2. Follow-up observation of pH of washes of a laboratory model of S. mutans biofilms.\nInoculum of S.mutans control strain was prepared from an ampoule. The ampoule with the dried strain was opened sterilely over a drier or a tray. The upper end of the ampoule was heated on a burner flame, and paraffin was removed; then a piece of sterile absorbent cotton moistened in sterile water was carefully touched to the pulled end of the ampoule so that a small crack appeared, and the same wet cotton was passed around the tip of the ampoule. After the crack had formed, the end of the ampoule was removed with a light blow of tweezers. After opening the ampoule, 0.3-0.5 ml of heart-brain broth was sterilely poured in. After dissolution of the dry contents, the ampoule was transferred with a Pasteur pipette into tubes with 2 ml of heart-brain broth and grown at 37°C for 2 hours in a thermostat in 5% CO2 medium. To restore full viability, 1-2 passages on nutrient media appropriate for the microbes of the species were required. 2 Petri dishes with agar containing 5% horse blood were seeded with 0.1 ml of a 2-hour culture on heart-brain broth of the strain. Petri dishes were incubated at 37°C for 18 hours in an incubator containing 5% CO2. Gram stained smears were prepared from the grown colonies to assess the tinctorial, phenotypic properties and homogeneity of bacteria. Species membership was confirmed using MALDI-TOF reference bases.\nAqueous solutions of nisin in concentrations of 0.004 and 0.008% were taken as the working solutions for testing. […] Distilled water was used as a negative control. […] Urea was chosen due to its ability to alkalinize the environment in bacterial biofilms (Jadon et al., 2018). During the assay, a 10% sucrose solution was used, which is known to be readily metabolized by cariogenic bacteria to acid, thus contributing to the overall acidification of the medium.\nThe contents of the wells were extracted using an aspirator. All 6 wells of the first row were filled with 1 ml of deionized water and left for 5 min. The water was extracted with an aspirator; 1 ml of the test solution was added into the wells; in 1 min the component was removed, the wells were glazed for 1 min with deionized water, then it was removed. 250 µl of 10% sucrose was added to the wells and biofilms were scraped off the well walls with a disposable plastic loop. The resulting suspension was transferred by pipette into three Eppendorf tubes: contents of wells 1 and 2 into Eppendorf tube No. 1, contents of wells 3 and 4 into Eppendorf tube No. 2, contents of wells 5 and 6 into Eppendorf tube No. 3; next, the measurement of pH started immediately. Time points of the measurement are: 0, 1, 2, 3, 4, 5, 6, 7, 8, 9, 10, 15, 20, 30 min. After the test was finished, the electrode was washed and the described procedure was repeated for the next solution under study."}, "[2]": {"test_system": "Streptococcus mutans No. 22081", "assay": "Effect of nisin concentrations on growth and biomass accumulation of S.mutans, serial two-fold dilutions micromethod, 16-hour follow-up (optical density A565 nm)", "format": "cell-based", "text": "Example No. 1. Determination of the effect of different concentrations of nisin on growth and biomass accumulation of S.mutans No. 22081 in 16-hour follow-up.\nAqueous solution of nisin in different concentrations was used as the working solution.\nTo prepare the reaction mixture containing the tested component, a method of serial twofold dilutions in heart-brain broth (Series 201181, valid till 012025., CONDALAB, Spain), a micromethod (flat-bottom 96-well plate), for which serial dilutions of the investigated component were prepared in liquid nutrient medium. When setting the methods of serial dilutions, control of culture growth on medium without the active component was carried out, and the quality of medium and investigated preparations was controlled using reference strains of the species. The purity of the microorganism suspension used for inoculation was also controlled by sowing on non-selective media.\nThe results of the micromethod formulation to evaluate the effect of drugs on the growth and development of the culture of Streptococcus mutans No. 22081 were recorded spectrophotometrically in an automatic kinetic format (intermittent shaking, T-37°C, measurement of optical density A565 nm every hour in automatic mode)."}, "[3]": {"details": "heart-brain broth, 37°C, 16-hour follow-up"}}, "data": [{"substance": "Nisin", "values": [{"measurement": "pH of mechanically disrupted S.mutans biofilms", "setting": "[1]; Nisin 0.004%, 0 min", "result": "6.09±0.006"}, {"measurement": "pH of mechanically disrupted S.mutans biofilms", "setting": "[1]; Nisin 0.004%, 1 min", "result": "6.08±0.006"}, {"measurement": "pH change (in brackets), S.mutans biofilms", "setting": "[1]; Nisin 0.004%, 1 min vs previous time point", "result": -0.01}, {"measurement": "pH of mechanically disrupted S.mutans biofilms", "setting": "[1]; Nisin 0.004%, 2 min", "result": "6.07±0.006"}, {"measurement": "pH change (in brackets), S.mutans biofilms", "setting": "[1]; Nisin 0.004%, 2 min vs previous time point", "result": -0.01}, {"measurement": "pH of mechanically disrupted S.mutans biofilms", "setting": "[1]; Nisin 0.004%, 3 min", "result": "6.05±0.006"}, {"measurement": "pH change (in brackets), S.mutans biofilms", "setting": "[1]; Nisin 0.004%, 3 min vs previous time point", "result": -0.02}, {"measurement": "pH of mechanically disrupted S.mutans biofilms", "setting": "[1]; Nisin 0.004%, 4 min", "result": "6.05±0"}, {"measurement": "pH change (in brackets), S.mutans biofilms", "setting": "[1]; Nisin 0.004%, 4 min vs previous time point", "result": 0}, {"measurement": "pH of mechanically disrupted S.mutans biofilms", "setting": "[1]; Nisin 0.004%, 5 min", "result": "6.04±0.006"}, {"measurement": "pH change (in brackets), S.mutans biofilms", "setting": "[1]; Nisin 0.004%, 5 min vs previous time point", "result": -0.01}, {"measurement": "pH of mechanically disrupted S.mutans biofilms", "setting": "[1]; Nisin 0.004%, 6 min", "result": "6.05±0.006"}, {"measurement": "pH change (in brackets), S.mutans biofilms", "setting": "[1]; Nisin 0.004%, 6 min vs previous time point", "result": "+0.01"}, {"measurement": "pH of mechanically disrupted S.mutans biofilms", "setting": "[1]; Nisin 0.004%, 7 min", "result": "6.05±0.006"}, {"measurement": "pH change (in brackets), S.mutans biofilms", "setting": "[1]; Nisin 0.004%, 7 min vs previous time point", "result": 0}, {"measurement": "pH of mechanically disrupted S.mutans biofilms", "setting": "[1]; Nisin 0.004%, 8 min", "result": "6.05±0"}, {"measurement": "pH change (in brackets), S.mutans biofilms", "setting": "[1]; Nisin 0.004%, 8 min vs previous time point", "result": 0}, {"measurement": "pH of mechanically disrupted S.mutans biofilms", "setting": "[1]; Nisin 0.004%, 9 min", "result": "6.05±0"}, {"measurement": "pH change (in brackets), S.mutans biofilms", "setting": "[1]; Nisin 0.004%, 9 min vs previous time point", "result": 0}, {"measurement": "pH of mechanically disrupted S.mutans biofilms", "setting": "[1]; Nisin 0.004%, 10 min", "result": "6.06±0.006"}, {"measurement": "pH change (in brackets), S.mutans biofilms", "setting": "[1]; Nisin 0.004%, 10 min vs previous time point", "result": "+0.01"}, {"measurement": "pH of mechanically disrupted S.mutans biofilms", "setting": "[1]; Nisin 0.004%, 15 min", "result": "6.05±0.006"}, {"measurement": "pH change (in brackets), S.mutans biofilms", "setting": "[1]; Nisin 0.004%, 15 min vs previous time point", "result": -0.01}, {"measurement": "pH of mechanically disrupted S.mutans biofilms", "setting": "[1]; Nisin 0.004%, 20 min", "result": "6.04±0.006"}, {"measurement": "pH change (in brackets), S.mutans biofilms", "setting": "[1]; Nisin 0.004%, 20 min vs previous time point", "result": -0.01}, {"measurement": "pH of mechanically disrupted S.mutans biofilms", "setting": "[1]; Nisin 0.004%, 30 min", "result": "6.0±0"}, {"measurement": "pH change (in brackets), S.mutans biofilms", "setting": "[1]; Nisin 0.004%, 30 min vs previous time point", "result": -0.04}, {"measurement": "Value of pH decrease within 30 min. of measurement (%)", "setting": "[1]; Nisin 0.004%", "result": -1.47, "unit": "%"}, {"measurement": "Value of pH decrease within 30 min. of measurement (%)", "setting": "[1]; Nisin 0.008%", "result": -3.15, "unit": "%"}, {"measurement": "pH of mechanically disrupted S.mutans biofilms", "setting": "[1]; Nisin 0,008%, 0 min", "result": "6.33±0"}, {"measurement": "pH of mechanically disrupted S.mutans biofilms", "setting": "[1]; Nisin 0,008%, 1 min", "result": "6.32±0.006"}, {"measurement": "pH change (in brackets), S.mutans biofilms", "setting": "[1]; Nisin 0,008%, 1 min vs previous time point", "result": -0.01}, {"measurement": "pH of mechanically disrupted S.mutans biofilms", "setting": "[1]; Nisin 0,008%, 2 min", "result": "6.31±0.006"}, {"measurement": "pH change (in brackets), S.mutans biofilms", "setting": "[1]; Nisin 0,008%, 2 min vs previous time point", "result": -0.01}, {"measurement": "pH of mechanically disrupted S.mutans biofilms", "setting": "[1]; Nisin 0,008%, 3 min", "result": "6.28±0.01"}, {"measurement": "pH change (in brackets), S.mutans biofilms", "setting": "[1]; Nisin 0,008%, 3 min vs previous time point", "result": -0.03}, {"measurement": "pH of mechanically disrupted S.mutans biofilms", "setting": "[1]; Nisin 0,008%, 4 min", "result": "6.24±0.006"}, {"measurement": "pH change (in brackets), S.mutans biofilms", "setting": "[1]; Nisin 0,008%, 4 min vs previous time point", "result": -0.04}, {"measurement": "pH of mechanically disrupted S.mutans biofilms", "setting": "[1]; Nisin 0,008%, 5 min", "result": "6.21±0.006"}, {"measurement": "pH change (in brackets), S.mutans biofilms", "setting": "[1]; Nisin 0,008%, 5 min vs previous time point", "result": -0.03}, {"measurement": "pH of mechanically disrupted S.mutans biofilms", "setting": "[1]; Nisin 0,008%, 6 min", "result": "6.21±0"}, {"measurement": "pH change (in brackets), S.mutans biofilms", "setting": "[1]; Nisin 0,008%, 6 min vs previous time point", "result": -0.03}, {"measurement": "pH of mechanically disrupted S.mutans biofilms", "setting": "[1]; Nisin 0,008%, 7 min", "result": "6.23±0"}, {"measurement": "pH change (in brackets), S.mutans biofilms", "setting": "[1]; Nisin 0,008%, 7 min vs previous time point", "result": "+0.02"}, {"measurement": "pH of mechanically disrupted S.mutans biofilms", "setting": "[1]; Nisin 0,008%, 8 min", "result": "6.23±0"}, {"measurement": "pH change (in brackets), S.mutans biofilms", "setting": "[1]; Nisin 0,008%, 8 min vs previous time point", "result": 0}, {"measurement": "pH of mechanically disrupted S.mutans biofilms", "setting": "[1]; Nisin 0,008%, 9 min", "result": "6.21±0"}, {"measurement": "pH change (in brackets), S.mutans biofilms", "setting": "[1]; Nisin 0,008%, 9 min vs previous time point", "result": -0.02}, {"measurement": "pH of mechanically disrupted S.mutans biofilms", "setting": "[1]; Nisin 0,008%, 10 min", "result": "6.2±0.006"}, {"measurement": "pH change (in brackets), S.mutans biofilms", "setting": "[1]; Nisin 0,008%, 10 min vs previous time point", "result": -0.01}, {"measurement": "pH of mechanically disrupted S.mutans biofilms", "setting": "[1]; Nisin 0,008%, 15 min", "result": "6.18±0"}, {"measurement": "pH change (in brackets), S.mutans biofilms", "setting": "[1]; Nisin 0,008%, 15 min vs previous time point", "result": -0.02}, {"measurement": "pH of mechanically disrupted S.mutans biofilms", "setting": "[1]; Nisin 0,008%, 20 min", "result": "6.17±0.006"}, {"measurement": "pH change (in brackets), S.mutans biofilms", "setting": "[1]; Nisin 0,008%, 20 min vs previous time point", "result": -0.01}, {"measurement": "pH of mechanically disrupted S.mutans biofilms", "setting": "[1]; Nisin 0,008%, 30 min", "result": "6.13±0.006"}, {"measurement": "pH change (in brackets), S.mutans biofilms", "setting": "[1]; Nisin 0,008%, 30 min vs previous time point", "result": -0.04}, {"measurement": "effect on the pH of cariogenic biofilm affected by sucrose", "setting": "[1]; nisin 0.004-0.008%", "result": "stabilizing effect"}, {"measurement": "effect on growth and biomass accumulation", "setting": "[2]; concentrations lower than 0.0039%", "result": "no significant effect"}, {"measurement": "concentrations that significantly inhibited growth and biomass accumulation, but had no bactericidal effect", "setting": "[2]; [3]", "result": "0.0039-0.0078%"}, {"measurement": "final concentration with pronounced antibacterial effect", "setting": "[2]; [3]", "result": "0.0078-0.125%"}, {"measurement": "minimum-suppressive concentration", "setting": "[2]; [3]", "result": 0.0039, "unit": "%"}, {"measurement": "antibacterial and inhibitory activity against S.mutans", "setting": "[2]; nisin solution in concentration of 0.008% and below", "result": "not able to have antibacterial and inhibitory activity"}]}]}
